Source: patent US20100196321A1, “COMPOUNDS” (GLAXOSMITHKLINE LLC, priority 2009, published 2010)

Legend:
[1] = test system: sub-genomic HCV NS3-NS5B replicon of genotype 1b (ET subline) in Huh-7 cells; experiment: Replicon Luciferase Cell Based Assay, genotype 1b; parameters: species or system HCV genotype 1b; details: Hepatitis C virus, Huh-7, 48 h, read-out: Genotype 1b (IC50 μM)
Procedure: (§1) A 10 mM stock solution in DMSO of each test compound was further diluted in DMSO in the first row of a 384-well, V-bottom microplate, to give 100 times the top concentration of the required dilution series. Dilutions of compound were prepared in 1:3 serial dilutions from the first row onwards robotically. A robot was also used to transfer 0.5 μL volumes from each dilution well into wells of white 384-well assay plates (Nunc #164610). Control wells received 0.5 μL of DMSO alone. Plates were made in duplicate for measuring HCV replication and cytotoxicity in the replicon cell lines.
(§2) Suspensions were prepared from cultures of Huh-7 cells stably transfected with sub-genomic HCV NS3—NS5B replicons of either genotype 1b (the ET subline described by Pietschmann, T., Lohmann, V., Kaul, A., Krieger, N., Rinck, G., Rutter, G., Strand, D. & Bartenschlager, R., Journal of Virology, 2002, 76, 4008-4021) or genotype 1a linked to a firefly luciferase reporter gene. Monolayers nearing confluency were stripped from growth flasks with versene-trypsin solution and the cells re-suspended in assay medium comprising DMEM (Invitrogen #11965-092) supplemented with 5% v/v foetal calf serum, 1% v/v non-essential amino acids solution, 100 units/ml penicillin, 100 μg/ml streptomycin and 2 mM GlutaMAX-1. 50 μL of suspension containing 5,000 cells of either genotype 1b or genotype 1a luciferase replicon were added to all wells, except medium controls, of the assay plate with a Multidrop Combi (Thermo Scientific Corporation) and the plate incubated for 48 hours at 37° C. in a 5% CO2 atmosphere. A solution of Steady-Glo cytolytic buffer/luciferase substrate (Promega #E2550) was prepared according to the manufacturer's instructions, and 20 μL were added to each well with a Multidrop Combi. To measure cytotoxicity, a solution of CellTiter-Glo Luminescent Cell Viability Assay reagent (Promega #G7573) was prepared according to the manufacturer's instructions, and 20 ul were added to each well with a Multidrop Combi. The plates were then read for luminescence on an Envision Multilabel Reader (Perkin Elmer)
(§3) Potency: The luminescence values from all compound-free wells containing cells were averaged to obtain a positive control value. The mean luminescence value from the compound-free wells that had received no cells was used to provide the negative (background) control value. After the subtraction of the mean background from all values, the readings from wells at each compound concentration were expressed as a percentage of the positive control signal. The quantifiable and specific reduction of luciferase signal in the presence of a drug is a direct measure of replicon inhibition. The BioAssay application and XC50 module were used to plot the curve of percentage inhibition against compound concentration and derive the 50% inhibitory concentration (IC50) for the compound.

[2] = test system: sub-genomic HCV NS3-NS5B replicon of genotype 1a in Huh-7 cells; experiment: Replicon Luciferase Cell Based Assay, genotype 1a; parameters: species or system HCV genotype 1a; details: Hepatitis C virus, Huh-7, 48 hours
Procedure: as §1, §2, §3

## COc1ccc2c(O[C@@H]3C[C@H]4C(=O)N[C@]5(C(=O)NS(=O)(=O)C6CC6)C[C@H]5/C=C\CCCCC[C@H](NC(=O)Nc5ccccc5)C(=O)N4C3)cc(-c3nc(C(C)C)cs3)nc2c1C [Example 1, (2R,6S,13aS,14aR,16aS)-N-(cyclopropylsulfonyl)-2-{[8-methyl-2-[4-(1-methylethyl)-1,3-thiazol-2-yl]-7-(methyloxy)-4-quinolinyl]oxy}-5,16-dioxo-6-{[(phenylamino)carbonyl]amino}-1,2,3,6,7,8,9,10,11,13a,14,15,16,16a-tetradecahydrocyclopropa[e]pyrrolo[1,2-a][1,4]diazacyclopentadecine-14a(5H)-carboxamide]
[1]
  IC50: < 0.01 µM
[2]
  IC50: < 0.01 µM

## CCN(CC)C(=O)N[C@H]1CCCCC/C=C\[C@@H]2C[C@@]2(C(=O)NS(=O)(=O)C2CC2)NC(=O)[C@@H]2C[C@@H](Oc3cc(-c4nc(C(C)C)cs4)nc4c(C)c(OC)ccc34)CN2C1=O [Example 2, (2R,6S,13aS,14aR,16aS)-N-(cyclopropylsulfonyl)-6-{[(diethylamino)carbonyl]amino}-2-{[8-methyl-2-[4-(1-methylethyl)-1,3-thiazol-2-yl]-7-(methyloxy)-4-quinolinyl]oxy}-5,16-dioxo-1,2,3,6,7,8,9,10,11,13a,14,15,16,16a-tetradecahydrocyclopropa[e]pyrrolo[1,2-a][1,4]diazacyclopentadecine-14a(5H)-carboxamide]
[1]
  IC50: < 0.01 µM
[2]
  IC50: < 0.01 µM

## COc1ccc2c(O[C@@H]3C[C@H]4C(=O)N[C@]5(C(=O)NS(=O)(=O)C6CC6)C[C@H]5/C=C\CCCCC[C@H](NC(N)=O)C(=O)N4C3)cc(-c3nc(C(C)C)cs3)nc2c1C [Example 3, (2R,6S,13aS,14aR,16aS)-6-[(aminocarbonyl)amino]-N-(cyclopropylsulfonyl)-2-{[8-methyl-2-[4-(1-methylethyl)-1,3-thiazol-2-yl]-7-(methyloxy)-4-quinolinyl]oxy}-5,16-dioxo-1,2,3,6,7,8,9,10,11,13a,14,15,16,16a-tetradecahydrocyclopropa[e]pyrrolo[1,2-a][1,4]diazacyclopentadecine-14a(5H)-carboxamide]
[1]
  IC50: < 0.01 µM
[2]
  IC50: < 0.01 µM

## CCN(CC)C(=O)N[C@H]1CCCCC/C=C\[C@@H]2C[C@@]2(C(=O)NS(=O)(=O)C2CC2)NC(=O)[C@@H]2C[C@@H](Oc3cc(-c4nc(C5CC5)cs4)nc4c(Cl)c(OC)ccc34)CN2C1=O [Example 4, (2R,6S,13aS,14aR,16aS,Z)-2-(8-chloro-2-(4-cyclopropylthiazol-2-yl)-7-methoxyquinolin-4-yloxy)-N-(cyclopropylsulfonyl)-6-(3,3-diethylureido)-5,16-dioxo-1,2,3,5,6,7,8,9,10,11,13a,14,14a,15,16,16a-hexadecahydrocyclopropa[e]pyrrolo[1,2-a][1,4]diazacyclopentadecine-14a-carboxamide]
[1]
  IC50: < 0.01 µM
[2]
  IC50: < 0.01 µM

## CCN(C(=O)N[C@H]1CCCCC/C=C\[C@@H]2C[C@@]2(C(=O)NS(=O)(=O)C2CC2)NC(=O)[C@@H]2C[C@@H](Oc3cc(-c4nc(C5CC5)cs4)nc4c(C)c(OC)ccc34)CN2C1=O)C(C)C [Example 5, (2R,6S,13aS,14aR,16aS)-N-(cyclopropylsulfonyl)-2-{[2-(4-cyclopropyl-1,3-thiazol-2-yl)-8-methyl-7-(methyloxy)-4-quinolinyl]oxy}-6-({[ethyl(1-methylethyl)amino]carbonyl}amino)-5,16-dioxo-1,2,3,6,7,8,9,10,11,13a,14,15,16,16a-tetradecahydrocyclopropa[e]pyrrolo[1,2-a][1,4]diazacyclopentadecine-14a(5H)-carboxamide]
[1]
  IC50: < 0.01 µM
[2]
  IC50: < 0.01 µM

## COc1ccc2c(O[C@@H]3C[C@H]4C(=O)N[C@]5(C(=O)NS(=O)(=O)C6CC6)C[C@H]5/C=C\CCCCC[C@H](NC(=O)N(C)C)C(=O)N4C3)cc(-c3nc(C4CC4)cs3)nc2c1C [Example 6, (2R,6S,13aS,14aR,16aS)-N-(cyclopropylsulfonyl)-2-{[2-(4-cyclopropyl-1,3-thiazol-2-yl)-8-methyl-7-(methyloxy)-4-quinolinyl]oxy}-6-{[(dimethylamino)carbonyl]amino}-5,16-dioxo-1,2,3,6,7,8,9,10,11,13a,14,15,16,16a-tetradecahydrocyclopropa[e]pyrrolo[1,2-a][1,4]diazacyclopentadecine-14a(5H)-carboxamide]
[1]
  IC50: < 0.01 µM
[2]
  IC50: < 0.01 µM

## COc1ccc2c(O[C@@H]3C[C@H]4C(=O)N[C@]5(C(=O)NS(=O)(=O)C6CC6)C[C@H]5/C=C\CCCCC[C@H](NC(=O)N(C)C(C)C)C(=O)N4C3)cc(-c3nc(C4CC4)cs3)nc2c1C [Example 7, (2R,6S,13aS,14aR,16aS)-N-(cyclopropylsulfonyl)-2-{[2-(4-cyclopropyl-1,3-thiazol-2-yl)-8-methyl-7-(methyloxy)-4-quinolinyl]oxy}-6-({[methyl(1-methylethyl)amino]carbonyl}amino)-5,16-dioxo-1,2,3,6,7,8,9,10,11,13a,14,15,16,16a-tetradecahydrocyclopropa[e]pyrrolo[1,2-a][1,4]diazacyclopentadecine-14a(5H)-carboxamide]
[1]
  IC50: < 0.01 µM
[2]
  IC50: < 0.01 µM

## COc1ccc2c(O[C@@H]3C[C@H]4C(=O)N[C@]5(C(=O)NS(=O)(=O)C6CC6)C[C@H]5/C=C\CCCCC[C@H](NC(=O)N(C(C)C)C(C)C)C(=O)N4C3)cc(-c3nc(C4CC4)cs3)nc2c1C [Example 8, (2R,6S,13aS,14aR,16aS)-6-({[bis(1-methylethyl)amino]carbonyl}amino)-N-(cyclopropylsulfonyl)-2-{[2-(4-cyclopropyl-1,3-thiazol-2-yl)-8-methyl-7-(methyloxy)-4-quinolinyl]oxy}-5,16-dioxo-1,2,3,6,7,8,9,10,11,13a,14,15,16,16a-tetradecahydrocyclopropa[e]pyrrolo[1,2-a][1,4]diazacyclopentadecine-14a(5H)-carboxamide]
[1]
  IC50: < 0.01 µM
[2]
  IC50: < 0.01 µM

## COc1ccc2c(O[C@@H]3C[C@H]4C(=O)N[C@]5(C(=O)NS(=O)(=O)C6CC6)C[C@H]5/C=C\CCCCC[C@H](NC(=O)N(C)C(C)(C)C)C(=O)N4C3)cc(-c3nc(C4CC4)cs3)nc2c1C [Example 9, (2R,6S,13aS,14aR,16aS)-N-(cyclopropylsulfonyl)-2-{[2-(4-cyclopropyl-1,3-thiazol-2-yl)-8-methyl-7-(methyloxy)-4-quinolinyl]oxy}-6-({[(1,1-dimethylethyl)(methyl)amino]carbonyl}amino)-5,16-dioxo-1,2,3,6,7,8,9,10,11,13a,14,15,16,16a-tetradecahydrocyclopropa[e]pyrrolo[1,2-a][1,4]diazacyclopentadecine-14a(5H)-carboxamide]
[1]
  IC50: < 0.01 µM
[2]
  IC50: < 0.01 µM

## COc1ccc2c(O[C@@H]3C[C@H]4C(=O)N[C@]5(C(=O)NS(=O)(=O)C6CC6)C[C@H]5/C=C\CCCCC[C@H](NC(=O)N5C[C@@H](C)O[C@@H](C)C5)C(=O)N4C3)cc(-c3nc(C(C)C)cs3)nc2c1C [Example 11, (2R,6S,13aS,14aR,16aS)-N-(cyclopropylsulfonyl)-6-({[(2R,6S)-2,6-dimethyl-4-morpholinyl]carbonyl}amino)-2-{[8-methyl-2-[4-(1-methylethyl)-1,3-thiazol-2-yl]-7-(methyloxy)-4-quinolinyl]oxy}-5,16-dioxo-1,2,3,6,7,8,9,10,11,13a,14,15,16,16a-tetradecahydrocyclopropa[e]pyrrolo[1,2-a][1,4]diazacyclopentadecine-14a(5H)-carboxamide]
[1]
  IC50: < 0.01 µM
[2]
  IC50: < 0.01 µM

## COc1ccc2c(O[C@@H]3C[C@H]4C(=O)N[C@]5(C(=O)NS(=O)(=O)C6CC6)C[C@H]5/C=C\CCCCC[C@H](NC(=O)N5CCS(=O)(=O)CC5)C(=O)N4C3)cc(-c3nc(C(C)C)cs3)nc2c1C [Example 12, (2R,6S,13aS,14aR,16aS)-N-(cyclopropylsulfonyl)-6-{[(1,1-dioxido-4-thiomorpholinyl)carbonyl]amino}-2-{[8-methyl-2-[4-(1-methylethyl)-1,3-thiazol-2-yl]-7-(methyloxy)-4-quinolinyl]oxy}-5,16-dioxo-1,2,3,6,7,8,9,10,11,13a,14,15,16,16a-tetradecahydrocyclopropa[e]pyrrolo[1,2-a][1,4]diazacyclopentadecine-14a(5H)-carboxamide]
[1]
  IC50: < 0.01 µM
[2]
  IC50: < 0.01 µM
